Test results: ChEMBL document CHEMBL4706703, “Novel 3-benzylidene/benzylphthalide Mannich base derivatives as potential multifunctional agents for the treatment of Alzheimer's disease” (Bioorg Med Chem, 2021)
Activity calls are given as the source filed them. No cut-off for these calls is given here.

Key:
[1] = Cytotoxicity against rat PC-12 cells assessed as cell viability at 100 uM measured after 2 hrs by MTT assay relative to control; type: cell-based; conditions: read-out: Activity
[2] = Permeability of the compound in pH 7.4 PBS/EtOH at 100 ug/ml after 18 hrs by PAMPA-BBB assay; type: ADME; conditions: dose 100 µg/ml, read-out: permeability
[3] = molecular target: butyrylcholinesterase (BuChE) (Rattus norvegicus, UniProt Q9JKC1); test: Inhibition of rat serum BuChE at 10 uM using butyrylthiocholine iodide as substrate incubated for 15 mins by Ellman's method relative to control; type: cell-free; conditions: probe butyrylthiocholine iodide
Chain of butyrylcholinesterase (BuChE) (Q9JKC1 whole entry): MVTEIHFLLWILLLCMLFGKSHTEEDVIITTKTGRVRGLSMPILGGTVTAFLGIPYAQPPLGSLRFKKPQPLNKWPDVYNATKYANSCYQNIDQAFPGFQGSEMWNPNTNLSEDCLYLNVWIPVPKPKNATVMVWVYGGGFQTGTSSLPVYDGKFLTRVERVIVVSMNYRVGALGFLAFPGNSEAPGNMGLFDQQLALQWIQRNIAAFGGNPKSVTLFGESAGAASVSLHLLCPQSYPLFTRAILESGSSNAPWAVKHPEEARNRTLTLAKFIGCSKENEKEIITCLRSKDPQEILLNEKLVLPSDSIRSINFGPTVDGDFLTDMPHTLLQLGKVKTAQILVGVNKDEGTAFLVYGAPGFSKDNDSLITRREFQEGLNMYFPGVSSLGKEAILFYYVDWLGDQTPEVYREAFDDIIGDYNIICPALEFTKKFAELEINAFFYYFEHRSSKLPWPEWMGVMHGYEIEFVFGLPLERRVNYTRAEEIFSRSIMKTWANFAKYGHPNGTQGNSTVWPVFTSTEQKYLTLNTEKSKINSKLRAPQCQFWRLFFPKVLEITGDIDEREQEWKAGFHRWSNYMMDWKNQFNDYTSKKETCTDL

[4] = tested on: Mus musculus; test: Memory improvement effect in ig dosed Kunming mouse model of scopolamine-induced memory impairment assessed as reduction in number of errors administered once daily for 7 days followed by scopolamine challenge 30 mins prior to training on day 6 measured on day 7 by passive avoidance test; type: functional, organism-based; conditions: dose 0.19-4.75 mg/kg, time 7.0 day
[5] = molecular target: T1, Amine oxidase [flavin-containing] B (Homo sapiens, UniProt P27338); test: Inhibition of recombinant human MAOB using kynuramine as substrate preincubated for 30 mins followed by substrate addition and measured after 30 mins by fluorescence assay
T1 sequence (P27338 whole entry): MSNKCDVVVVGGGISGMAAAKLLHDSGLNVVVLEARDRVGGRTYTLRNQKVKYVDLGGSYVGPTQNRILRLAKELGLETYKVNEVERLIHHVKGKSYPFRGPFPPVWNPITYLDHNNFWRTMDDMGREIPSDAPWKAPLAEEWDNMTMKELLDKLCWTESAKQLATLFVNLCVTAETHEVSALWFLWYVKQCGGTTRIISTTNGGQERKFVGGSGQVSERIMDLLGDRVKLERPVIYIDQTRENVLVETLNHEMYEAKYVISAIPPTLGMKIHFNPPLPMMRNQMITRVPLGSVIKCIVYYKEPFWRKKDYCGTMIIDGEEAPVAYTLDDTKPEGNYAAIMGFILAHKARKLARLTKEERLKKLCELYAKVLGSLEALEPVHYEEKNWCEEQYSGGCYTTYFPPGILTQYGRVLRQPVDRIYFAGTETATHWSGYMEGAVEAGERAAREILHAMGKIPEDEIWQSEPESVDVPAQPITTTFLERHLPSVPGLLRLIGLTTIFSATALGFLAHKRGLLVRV

[6] = molecular target: Amyloid-beta precursor protein (Homo sapiens) (UniProt P05067); test: Inhibition of amyloid beta (1 to 42) (unknown origin) self aggregation at 25 uM after 24 hrs by thioflavin-T fluorescence method relative to control
Chain of Amyloid-beta precursor protein (Homo sapiens) (P05067 whole entry): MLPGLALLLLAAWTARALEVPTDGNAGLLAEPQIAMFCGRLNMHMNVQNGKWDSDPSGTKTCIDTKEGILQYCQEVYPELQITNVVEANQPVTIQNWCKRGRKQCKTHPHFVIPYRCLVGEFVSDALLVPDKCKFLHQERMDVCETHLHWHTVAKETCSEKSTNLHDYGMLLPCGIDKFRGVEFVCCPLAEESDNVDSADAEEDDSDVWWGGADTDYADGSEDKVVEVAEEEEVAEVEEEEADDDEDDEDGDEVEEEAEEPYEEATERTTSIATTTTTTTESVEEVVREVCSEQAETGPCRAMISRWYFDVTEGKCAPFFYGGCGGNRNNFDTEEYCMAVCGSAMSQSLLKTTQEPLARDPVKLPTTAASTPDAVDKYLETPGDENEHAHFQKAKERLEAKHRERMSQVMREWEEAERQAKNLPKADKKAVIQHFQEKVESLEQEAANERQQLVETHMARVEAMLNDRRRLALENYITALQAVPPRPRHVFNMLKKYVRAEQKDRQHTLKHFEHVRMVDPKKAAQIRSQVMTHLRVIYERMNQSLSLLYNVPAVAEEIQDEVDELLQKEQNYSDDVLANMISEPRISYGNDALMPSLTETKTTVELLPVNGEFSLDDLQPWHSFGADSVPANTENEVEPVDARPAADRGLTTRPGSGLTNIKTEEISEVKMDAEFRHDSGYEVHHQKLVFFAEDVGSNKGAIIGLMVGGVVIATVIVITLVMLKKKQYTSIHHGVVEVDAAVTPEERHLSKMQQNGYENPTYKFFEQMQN

[7] = tested on: Plasma; test: Antiplatelet activity in rat platelet-rich plasma assessed as inhibition of ADP-induced platelet aggregation at 33 uM preincubated for 30 mins followed by ADP addition measured within 5 mins by aggregometry relative to control; type: functional; conditions: time 30-35 min
[8] = tested on: Mus musculus; test: Reversal of scopolamine-induced memory impairment in ig dosed Kunming mouse assessed as increase in ACh level in cerebral cortex administered once daily for 7 days followed by scopolamine challenge 30 mins prior to training trail on day 6 measured on day 7; type: functional, organism-based; conditions: dose 0.19-4.75 mg/kg, time 7.0 day
[9] = Metal chelating activity assessed as mole fraction required to show 1:1 stoichiometry for compound-Cu2+ complex formation measured after 30 mins
[10] = molecular target: T2, Acetylcholinesterase (Electrophorus electricus, UniProt O42275); test: Competitive inhibition of Electrophorus electricus AChE using varying levels of acetylthiocholine iodide as substrate preincubated for 15 mins followed by substrate addition and measured for 15 mins by Ellman's method based Lineweaver-Burk plot analysis
T2 sequence (O42275 whole entry, the tested form may be a part): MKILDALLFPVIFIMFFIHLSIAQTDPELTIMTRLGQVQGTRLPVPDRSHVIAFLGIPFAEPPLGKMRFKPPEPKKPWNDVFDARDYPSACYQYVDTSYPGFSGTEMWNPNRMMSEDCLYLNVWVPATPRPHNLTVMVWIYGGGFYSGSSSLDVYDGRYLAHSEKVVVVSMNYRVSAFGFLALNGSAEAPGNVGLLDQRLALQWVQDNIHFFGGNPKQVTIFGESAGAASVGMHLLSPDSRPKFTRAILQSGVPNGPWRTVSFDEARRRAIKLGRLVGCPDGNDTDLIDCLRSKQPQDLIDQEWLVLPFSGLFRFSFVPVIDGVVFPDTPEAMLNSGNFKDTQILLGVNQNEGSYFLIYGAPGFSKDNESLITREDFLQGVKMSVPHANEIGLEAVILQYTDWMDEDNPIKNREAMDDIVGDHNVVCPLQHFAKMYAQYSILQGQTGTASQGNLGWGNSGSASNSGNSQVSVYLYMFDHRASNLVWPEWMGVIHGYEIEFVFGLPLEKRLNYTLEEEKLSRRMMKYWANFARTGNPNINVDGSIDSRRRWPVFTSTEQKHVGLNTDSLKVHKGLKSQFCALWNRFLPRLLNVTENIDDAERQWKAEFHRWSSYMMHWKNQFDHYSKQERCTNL

[11] = Inhibition of Cu2+-induced amyloid beta (1 to 42 residues) aggregation at 25 uM after 24 hrs by thioflavin T-based fluorescence assay relative to control
[12] = molecular target: Amyloid-beta precursor protein (Homo sapiens) (UniProt P05067); test: Disaggregation of self-induced amyloid beta (1 to 42) (unknown origin) preformed fibrils at 25 uM measured after 24 hrs by thioflavin-T fluorescence assay relative to control
[13] = molecular target: T3, Acetylcholinesterase (Homo sapiens, UniProt P22303); test: Inhibition of human AChE using acetylthiocholine iodide as substrate incubated for 15 mins by Ellman's method
T3 sequence (P22303 whole entry): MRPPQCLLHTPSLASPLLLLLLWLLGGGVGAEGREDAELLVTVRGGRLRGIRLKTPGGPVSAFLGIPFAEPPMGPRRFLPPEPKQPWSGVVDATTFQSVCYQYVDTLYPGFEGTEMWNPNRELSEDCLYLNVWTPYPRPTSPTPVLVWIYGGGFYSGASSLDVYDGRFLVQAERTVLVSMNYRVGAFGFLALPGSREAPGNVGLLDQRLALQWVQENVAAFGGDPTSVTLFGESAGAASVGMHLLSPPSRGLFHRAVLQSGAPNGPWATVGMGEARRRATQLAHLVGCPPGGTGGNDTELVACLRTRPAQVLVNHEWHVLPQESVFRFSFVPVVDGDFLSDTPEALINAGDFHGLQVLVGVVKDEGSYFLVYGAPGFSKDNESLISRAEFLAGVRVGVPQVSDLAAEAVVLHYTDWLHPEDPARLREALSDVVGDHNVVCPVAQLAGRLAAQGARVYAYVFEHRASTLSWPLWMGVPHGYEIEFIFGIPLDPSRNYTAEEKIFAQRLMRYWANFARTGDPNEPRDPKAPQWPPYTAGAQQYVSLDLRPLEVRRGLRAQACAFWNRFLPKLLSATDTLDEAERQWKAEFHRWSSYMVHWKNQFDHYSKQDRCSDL

[14] = Metal chelating activity assessed as compound-Cu2+ complex formation by measuring induction of red shift at 37.5 uM measured after 2 hrs by UV-visible spectrometric method
[15] = molecular target: T4, MAO-A (Homo sapiens, UniProt P21397); test: Inhibition of recombinant human MAOA at 10 uM using kynuramine as substrate preincubated for 30 mins followed by substrate addition and measured after 30 mins by fluorescence assay relative to control; conditions: probe kynuramine, time 60 min
T4 sequence (P21397 whole entry): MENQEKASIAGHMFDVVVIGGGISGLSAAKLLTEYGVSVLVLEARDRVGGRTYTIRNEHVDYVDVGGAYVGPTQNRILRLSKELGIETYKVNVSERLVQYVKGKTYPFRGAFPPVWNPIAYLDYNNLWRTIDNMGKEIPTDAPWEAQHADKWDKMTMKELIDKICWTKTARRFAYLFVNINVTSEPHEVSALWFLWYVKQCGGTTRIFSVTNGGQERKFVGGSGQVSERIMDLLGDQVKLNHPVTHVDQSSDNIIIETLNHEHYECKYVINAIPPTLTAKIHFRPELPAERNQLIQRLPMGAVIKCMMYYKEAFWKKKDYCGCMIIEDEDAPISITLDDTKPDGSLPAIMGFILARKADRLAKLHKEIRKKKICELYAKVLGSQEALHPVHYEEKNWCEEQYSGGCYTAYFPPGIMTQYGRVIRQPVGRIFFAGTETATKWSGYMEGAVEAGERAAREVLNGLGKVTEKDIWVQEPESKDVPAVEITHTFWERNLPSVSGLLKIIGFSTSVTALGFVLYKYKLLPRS

[16] = Metal chelating activity assessed as compound-Zn2+ complex formation by measuring induction of red shift at 37.5 uM measured after 2 hrs by UV-visible spectrometric method
[17] = molecular target: T2, Acetylcholinesterase; test: Inhibition of Electrophorus electricus AChE using acetylthiocholine iodide as substrate incubated for 15 mins by Ellman's method
[18] = tested on: Mus musculus; test: Memory improvement effect in ig dosed Kunming mouse model of scopolamine-induced memory impairment assessed as increase in latency time administered once daily for 7 days followed by scopolamine challenge 30 mins prior to training on day 6 measured on day 7 by passive avoidance test; type: functional, organism-based; conditions: dose 0.19-4.75 mg/kg, time 7.0 day
[19] = Antioxidant activity assessed as trolox equivalent of AAPH radical scavenging activity measured every min for 90 mins by ORAC-FL assay; type: functional
[20] = tested on: PC-12; test: Cytotoxicity against rat PC-12 cells assessed as effect on cell viability up to 50 uM measured after 2 hrs by MTT assay; type: cell-based; conditions: pc-12, 2 h
[21] = tested on: PC-12; test: Neuroprotective activity against H2O2-induced cytotoxicity in rat PC12 cells assessed as increase in cell viability preincubated for 2 hrs followed by H2O2 addition and measured after 24 hrs by MTT assay; type: functional, cell-based; conditions: dose 1-50 µM, time 26.0 hrs
[22] = Metal chelating activity assessed as compound-Fe2+ complex formation by measuring induction of red shift at 37.5 uM measured after 2 hrs by UV-visible spectrometric method
[23] = tested on: PC-12; test: Neuroprotective activity against H2O2-induced cytotoxicity in rat PC12 cells assessed as cell viability at 50 uM preincubated for 2 hrs followed by H2O2 addition and measured after 24 hrs by MTT assay (reference value: 53.1%); type: cell-based; conditions: PC-12, 24 h, time 26 hrs, read-out: Activity
[24] = Metal chelating activity assessed as compound-Al3+ complex formation by measuring induction of blue shift at 37.5 uM measured after 2 hrs by UV-visible spectrometric method
[25] = molecular target: T1, Amine oxidase [flavin-containing] B; test: Inhibition of recombinant human MAOB at 10 uM using kynuramine as substrate preincubated for 30 mins followed by substrate addition and measured after 30 mins by fluorescence assay relative to control; conditions: 0.5 h
[26] = tested on: PC-12; test: Neuroprotective activity against H2O2-induced cytotoxicity in rat PC12 cells assessed as increase in cell viability at 100 uM preincubated for 2 hrs followed by H2O2 addition and measured after 24 hrs by MTT assay; type: functional, cell-based; conditions: time 26.0 hrs
[27] = tested on: Plasma; test: Antiplatelet activity in rat platelet-rich plasma assessed as inhibition of ADP-induced platelet aggregation preincubated for 30 mins followed by ADP addition measured within 5 mins by aggregometry; type: functional
[28] = molecular target: Acetylcholinesterase (Electrophorus electricus) (UniProt O42275); test: Inhibition of Electrophorus electricus AChE at 10 uM using acetylthiocholine iodide as substrate incubated for 15 mins by Ellman's method relative to control
Chain of Acetylcholinesterase (Electrophorus electricus) (O42275 24-633 limits assumed): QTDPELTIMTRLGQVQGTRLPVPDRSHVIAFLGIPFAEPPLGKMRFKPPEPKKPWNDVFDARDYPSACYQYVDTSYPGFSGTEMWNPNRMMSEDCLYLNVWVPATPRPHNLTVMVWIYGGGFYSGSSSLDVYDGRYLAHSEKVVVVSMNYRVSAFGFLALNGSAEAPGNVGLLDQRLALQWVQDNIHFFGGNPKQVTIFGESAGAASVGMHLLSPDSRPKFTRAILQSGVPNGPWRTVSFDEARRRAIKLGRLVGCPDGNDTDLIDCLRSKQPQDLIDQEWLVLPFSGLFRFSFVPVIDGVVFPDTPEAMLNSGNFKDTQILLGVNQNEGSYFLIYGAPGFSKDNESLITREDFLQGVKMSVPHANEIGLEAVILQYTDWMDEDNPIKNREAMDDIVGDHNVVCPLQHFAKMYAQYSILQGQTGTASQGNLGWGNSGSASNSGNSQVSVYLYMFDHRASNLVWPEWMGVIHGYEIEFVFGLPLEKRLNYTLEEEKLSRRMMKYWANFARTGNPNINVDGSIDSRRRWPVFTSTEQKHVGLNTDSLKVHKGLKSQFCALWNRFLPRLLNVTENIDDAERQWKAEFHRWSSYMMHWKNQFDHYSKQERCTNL

[29] = tested on: PC-12; test: Neuroprotective activity against H2O2-induced cytotoxicity in rat PC12 cells assessed as increase in cell viability at 10 uM preincubated for 2 hrs followed by H2O2 addition and measured after 24 hrs by MTT assay; type: functional, cell-based; conditions: time 26.0 hrs
[30] = molecular target: T3, Acetylcholinesterase; test: Inhibition of human AChE at 10 uM using acetylthiocholine iodide as substrate incubated for 15 mins by Ellman's method relative to control
[31] = tested on: Mus musculus; test: Memory improvement effect in Kunming mouse model of scopolamine-induced memory impairment assessed as reduction in number of errors at 5 mg/kg, ig administered once daily for 7 days followed by scopolamine challenge 30 mins prior to training on day 6 measured on day 7 by passive avoidance test; type: functional, organism-based; conditions: time 7.0 day
[32] = tested on: Mus musculus; test: Memory improvement effect in Kunming mouse model of scopolamine-induced memory impairment assessed as increase in latency time at 5 mg/kg, ig administered once daily for 7 days followed by scopolamine challenge 30 mins prior to training on day 6 measured on day 7 by passive avoidance test; type: functional, organism-based; conditions: time 7.0 day
[33] = tested on: Mus musculus; test: Reversal of scopolamine-induced memory impairment in Kunming mouse assessed as increase in ACh level in cerebral cortex at 5 mg/kg, ig administered once daily for 7 days followed by scopolamine challenge 30 mins prior to training trail on day 6 measured on day 7; type: functional, organism-based; conditions: time 7.0 day

Row | SMILES | inhibition at […], 10 µM [3] [%] | inhibition [6] [%] | inhibition at 33 µM [7] [%] | inhibition [11] [%] | Activity [12] [%] | IC50 [13] [nM] | inhibition at 0.5 h, 10 µM [15] [%] | IC50 [17] [nM] | Activity [19] [equiv] | inhibition at 10 µM [25] [%] | further results
1 | COc1cc2c(cc1OC)/C(=C/c1ccc(O)c(N3CCCCC3)c1)OC2=O | 22.4 | 34.2 | 32.5 | 19.9 | 11.8 | 0.616 | < 5 | 0.0918 | 2.05 |  | viability at 2 h, 100 µM [1]: 81.2%; Papp at 18 h, 100 ug/ml [2]: 12.3 ×10⁻⁶ cm/s; Activity [4]: Dose-dependent effect; IC50 [5]: 5880 nM; Activity [8]: Dose-dependent effect; Activity (mole fraction) [9]: 0.88; Ki [10]: 0.082 nM; Activity [14]: Active; Activity [16]: Active; Activity [18]: Dose-dependent effect; Activity [20]: Non-Toxic; Activity [21]: Dose-dependent effect; Activity [22]: Active; viability at 50 µM [23]: 79%; Activity [24]: Active
2 | COc1cc2c(cc1OC)/C(=C\c1ccc(O)c(N3CCCCC3)c1)OC2=O | 27.6 | 15.8 | 18.4 |  |  | 0.338 | 5.67 | 0.0704 | 1.95 | 34.8 | Papp at 18 h, 100 ug/ml [2]: 11.2 ×10⁻⁶ cm/s
3 | Cc1c(C)c2c(c(C)c1O)CCC(C)(C(=O)O)O2 (stereo not given) |  |  |  |  |  |  |  |  |  |  | Activity [26]: Active
4 | COc1cc(/C=C/C(=O)CC(=O)/C=C/c2ccc(O)c(OC)c2)ccc1O |  |  |  | 58 | 24.3 |  |  |  |  |  | 
5 | O=C1CCc2cc(OCCCCc3nnnn3C3CCCCC3)ccc2N1 [CILOSTAZOL] |  |  |  |  |  |  |  |  |  |  | IC50 [27]: 65100 nM
6 | COc1cc2c(cc1OC)/C(=C/c1ccc(N3CCN(C)CC3)c(O)c1)OC2=O | < 5 |  |  |  |  |  | 16.5 |  | 1.36 |  | IC50 [5]: 1550 nM; inhibition [28]: 42.4%
7 | CCCCC1OC(=O)c2ccccc21 (racemic) [RAC-3-N-BUTYLPHTHALIDE] | < 5 |  | 9.5 | < 5 | < 5 |  |  |  | 0.2 |  | Activity [29]: Active; inhibition [30]: < 5%
8 | COc1cc2c(cc1OC)C(=O)C(CC1CCN(Cc3ccccc3)CC1)C2 (stereo not given) |  |  |  |  |  |  |  |  |  |  | Activity [31]: Active; Activity [32]: Active; Activity [33]: Active
9 | CCN(CC)c1cc(/C=C2\OC(=O)c3cc(OC)c(OC)cc32)ccc1O | 15.7 | 25.9 | 45.1 | < 5 | 19.9 | 1.55 | < 5 | 0.383 | 2.14 | 46.2 | 
10 | COc1cc2c(cc1OC)/C(=C\c1ccc(N3CCCCC3)c(O)c1)OC2=O | 26.2 | 22.5 | < 5 |  |  | 12 | 49.1 | 8.83 | 1.94 | 16.1 | 
